# Laboratory results reported in patent publication US20040248232A1, “Method for treating Alzheimer's dementia” (priority 2003, published 2004).
# “Also recorded” adds a separate entry of the source. Non-standard residues stand in square brackets, D forms with d. Residues, ends and D or L forms follow the SMILES beside them. *: point of attachment. Sta = CC(C)C[C@H](N)[C@@H](O)CC(=O)O; Isovaleryl = CC(C)CC(=O)*
# Legend:
# [1] = test system: β-secretase endoprotease activity in chromaffin vesicle lysate; test: Effect of reducing agents on β-secretase endoprotease activity in chromaffin vesicles; assay type: biochemical, bovine; conditions: 1 mM; lysed vesicles, Z*Val-Lys-Met-MCA
# Method: (§1) The β-secretase endoprotease activity was identified by incubating the chromaffin vesicle lysate (2-10 μl of 10-20 mg protein/ml) with the Z★Val-Lys-Met-MCA substrate (100 μM final concentration) and detecting AMC fluorescence. The chromaffin vesicle lysate was prepared as described in Example I. The endoprotease activity was determined as a function of pH by varying the pH of the incubation solution between 3.0 to 8.0 in 0.5 pH increments. Citric acid, sodium phosphate, and Tris-HCl buffers (100 mM final concentration) were used to adjust the pH of the incubation solutions between 3.0 to 5.5, 6.0 to 7.5, and 8.0, respectively. Duplicate samples at each pH increment (100 μl each) were distributed among 22 wells in a covered microtiter well plate and incubated at 37° C. for 8 hours in a water bath.
# (§2) The effect of the reducing agent dithiothreitol (DTT) on β-secretase endoprotease activity was determined using the assay described in Example III. Briefly, the lysed vesicles were incubated with the substrate Z★Val-Lys-Met-MCA in the presence or absence of 1 mM DTT and the resulting fluorescence plotted as a function of pH. Both with and without DTT, β-secretase endoprotease activity was detected and in both cases that activity had pH optimum of about 4.0 to 6.0, which is consistent with the intravesicular pH of chromaffin vesicles.
# [2] = molecular target: T1, Peak I β-secretase endoprotease activity (cathepsin L) (Bos taurus, UniProt P25975); test: Protease inhibitors of β-secretase endoprotease activity in Peak I; assay type: biochemical, bovine; conditions: for Peak I (%): % of control (no inhibitor); for inhibition of Peak I activity, in words: text summary of Table IV; for β-secretase activity of Peak I: inhibitor at 1 μM (Example XVI)
# T1 construct: from tissue; host or cells: bovine adrenal medulla chromaffin vesicles; Con A then Sephacryl S200, Peak I
# T1 sequence (P25975 118-334): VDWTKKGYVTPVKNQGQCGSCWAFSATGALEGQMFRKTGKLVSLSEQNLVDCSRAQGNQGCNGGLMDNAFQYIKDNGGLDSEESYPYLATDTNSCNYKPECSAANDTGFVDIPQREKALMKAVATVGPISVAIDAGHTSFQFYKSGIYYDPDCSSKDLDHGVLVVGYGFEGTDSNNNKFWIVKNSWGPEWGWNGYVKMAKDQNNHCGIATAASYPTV
# Method: The effect of the aminopeptidase M and the basic pH buffer used in the β-secretase endoprotease activity assay was determined. […] Three assays were conducted, one with aminopeptidase M in its basic pH buffer, another with the basic pH buffer but not aminopeptidase M, and a third without either the buffer or the aminopeptidase M. Briefly, the chromaffin vesicle lysate and the substrate Z★Val-Lys-Met-MCA were incubated for 30 minutes-at a specified pH and the resulting fluorescence measured. The aminopeptidase M in the basic pH buffer or:.that buffer alone (final concentration of 75 mM Tris-HCl pH 8.2) was added to the assay and incubated an additional 60 minutes at 37° C.
# The protease inhibitor was added to each assay at the start of the reaction at the appropriate concentration. The extent of inhibition was expressed as a percentage of the activity without the inhibitor (control).
# [3] = molecular target: T2, Peak II β-secretase endoprotease activity (cathepsin B) (Bos taurus, UniProt P07688); test: Protease inhibitors of β-secretase endoprotease activity in Peak II; assay type: biochemical, bovine; conditions: for Peak II (%): % of control (no inhibitor); for inhibition of Peak II activity, in words: text summary of Table IV
# T2 construct: from tissue; host or cells: bovine adrenal medulla chromaffin vesicles; Con A, Sephacryl S200 (Peak II), Mono Q (II-A, II-B)
# [4] = test system: 27 kDa and 31 kDa cysteine protease bands of Peak I; test: 125I-DCG-04 affinity labeling of Peak I; assay type: binding, bovine; conditions: inhibitor 1 μM
# Method: An aliquot of Peak I was incubated at room temperature with 125I-DCG-04 for 30 minutes, and the affinity labeled β-secretase was then subjected to one-dimensional SDS-PAGE followed by electrophoretic transfer of proteins to nitrocellulose membranes, and 125I-DCG-04 labeled proteins were detected with streptavidin-HRP, as described previously (Greenbaum et al. Chem. Biol. 7:569-81, 2000, Greenbaum et al., Chemistry and Biology 10, 1085-1094, 2002; Greenbaum et al., Mol. Cell. Proteomics, 1:60-68, 2002).
# The 31 kDa band resembles the molecular weight of the cysteine protease cathepsin B (Barrett et al., “Handbook of Proteolytic Enzymes,” Pub. Academic Press, SanDiego, pp 609-617, 1998; and Greenbaum et al., Mol. Cell. Proteomics, 1:60-68, 2002). The selective cathepsin B inhibitor, CA-074, was used to determine whether the 27 kDa or 31 kDa bands were responsible for the β-secretase activity of Peak I (Yamamoto et al., J. Mol. Biol. 227:942-944, 1992; Gour-Salin et al., J. Med. Chem. 36:720-725, 1993; Bogyo et al., Chem Biol. 1:27-38, 2000).
# [5] = test system: β-secretase endoprotease activity in chromaffin vesicle lysate; test: Protease inhibitors of β-secretase endoprotease activity in chromaffin vesicle lysate (Z*Val-Lys-Met-MCA cleavage, AMC fluorescence); assay type: biochemical, bovine; conditions: for % CONTROL: pH 5.5, with aminopeptidase M, activity as % of activity without inhibitor; for inhibition of β-secretase endoprotease activity in chromaffin vesicle lysate, in words: text summary of Table II
# Method: as §1
# As discussed above, endoprotease cleavage between the Met-MCA bond in the Z★Val-Lys-Met-MCA substrate produces fluorescent AMC, but endoprotease cleavage between the Lys-Met or Val-Lys bonds in that substrate produces non-fluorescent Lys-Met-MCA and Met-MCA peptides. To insure that the latter two endoprotease cleavages were detected, aminopeptidase M (20 μg/ml final concentration, BOEHRINGER […]) was added to each incubation solutions to produce fluorescent AMC from the Lys-Met-MCA and Met-MCA peptides. Prior to adding the aminopeptidase M, each incubation solution was adjusted to a pH 8.3 using Tris-HCl because aminopeptidase M functions at a basic pH. A second incubation at 37° C. for 1 hour in the water bath was conducted to complete the aminopeptidase M reaction.
# Upon termination of that second incubation, AMC fluorescence was assayed using a fluorometer (IDEXX fluorometer, FCA Fluorescence Concentration Analyzer, cat. no. 10-105-2, BAXTER HEALTH CARE CORP., Mundelein, Ill.) at excitation and emission wavelengths of 365 and 450 nm, respectively. Standard AMC concentrations were also measured to quantitate relative fluorescence with the molar amount (pmol) of AMC generated by the secretase. The resulting AMC fluorescence reflects the endoprotease activity in cleaving either the Met-MCA, Lys-Met. and Val-Lys bonds in the Z★Val-Lys-Met-MCA substrate.
# as §2
# The effect of the aminopeptidase M and the basic pH buffer used in the β-secretase endoprotease activity assay was determined. The assay was conducted as described in Example VIII with DTT. Three assays were conducted, one with aminopeptidase M in its basic pH buffer, another with the basic pH buffer but not aminopeptidase M, and a third without either the buffer or the aminopeptidase M. Briefly, the chromaffin vesicle lysate and the substrate Z★Val-Lys-Met-MCA were incubated for 30 minutes-at a specified pH and the resulting fluorescence measured. The aminopeptidase M in the basic pH buffer or:.that buffer alone (final concentration of 75 mM Tris-HCl pH 8.2) was added to the assay and incubated an additional 60 minutes at 37° C. […] The assay conducted with aminopeptidase M and its basic pH buffer and that of the control assay having just the basic pH buffer produced approximately the same amount of fluorescence.
# The effect of various protease inhibitors on β-secretase endoprotease activity in the lysate was determined at the pH optimum 5.5 in the assay described in Example IX containing aminopeptidase M. Protease inhibitors specific for various protease classes were used. […]
# [6] = test system: cathepsin activity in brain; conditions: administered to animals; cited from earlier work
# [7] = test system: primary chromaffin cell cultures; test: Aβ-peptide secretion by chromaffin cells (RIA of Aβ1-40 in media); assay type: cell-based; conditions: 50 mM, 15 minutes
# Method: Primary chromaffin cell cultures containing approximately 2 million cells in each culture were produced using established methods (Hook et al., ibid.; and Tezapsidis et al., ibid.). Exocytosis of the contents of the vesicles in such cells was induced by exposing the cells to KCl (50 mM) or nicotine (10 μM) for 15 minutes.
compound,measurement,setting,value
"O[C@H](CS)[C@H](O)CS (racemic) [DTT, dithiothreitol]",increase in the β-secretase endoprotease activity,[1],approximately 5 fold
"c1cnc2c(c1)ccc1cccnc12 [1,10 Phenanthroline]",Peak I (%),[2]; inhibitor 500 μM,31%
same,"inhibition of Peak I activity, in words",[2],significantly inhibited
same,Peak II (%),[3]; inhibitor 500 μM,72%
same,"inhibition of Peak II activity, in words",[3],only slightly inhibited
CCCNC(=O)[C@H]1O[C@@H]1C(=O)N[C@H](C(=O)N1CCC[C@H]1C(=O)O)[C@@H](C)CC [CA-074],β-secretase activity of Peak I,[2],not affected
same,125I-DCG-04 labeling of Peak I bands in the presence of the inhibitor,[4],labeling of only the 27 kDa band
CC(C)C[C@H](NC(=O)[C@@H](NC(=O)N[C@@H](Cc1ccccc1)C(=O)O)[C@@H]1CCN=C(N)N1)C(=O)N[C@H](C=O)Cc1ccccc1 [Chymostatin],% CONTROL,[5]; inhibitor 10 μM,11%
same,"inhibition of β-secretase endoprotease activity in chromaffin vesicle lysate, in words",[5],greatly inhibited
same,Peak I (%),[2]; inhibitor 10 μM,0%
same,"inhibition of Peak I activity, in words",[2],maximally inhibited
same,Peak II (%),[3]; inhibitor 10 μM,35%
same,"inhibition of Peak II activity, in words",[3],maximally inhibited
CC(C)CCNC(=O)[C@H](CC(C)C)NC(=O)[C@H]1O[C@@H]1C(=O)O [E64c],% CONTROL,[5]; inhibitor 10 μM,0%
same,"inhibition of β-secretase endoprotease activity in chromaffin vesicle lysate, in words",[5],completely inhibited
same,Peak I (%),[2]; inhibitor 10 μM,0%
same,β-secretase activity of Peak I,[2],completed inhibited
same,"inhibition of Peak I activity, in words",[2],maximally inhibited; also recorded: completely inhibited
same,Peak II (%),[3]; inhibitor 10 μM,0%
same,"inhibition of Peak II activity, in words",[3],maximally inhibited; also recorded: completely inhibited
same,cathepsin activity in brain,[6],effectively block
"O=C(O)CN(CCN(CC(=O)O)CC(=O)O)CC(=O)O [EDTA, ethylenediaminetetraacetic acid]",% CONTROL,[5]; inhibitor 1 mM,100%
same,Peak I (%),[2]; inhibitor 1 mM,99%
same,Peak II (%),[3]; inhibitor 1 mM,138%
O=C(O)CN(CCOCCOCCN(CC(=O)O)CC(=O)O)CC(=O)O [EGTA],% CONTROL,[5]; inhibitor 1 mM,99%
same,Peak I (%),[2]; inhibitor 1 mM,108%
same,Peak II (%),[3]; inhibitor 1 mM,142%
"[Cl-].[K+] [KCl, potassium chloride]",increase in the concentration of Aβ1-40 peptide in the media relative to control media,[7],approximately 350 fold
CC(=O)N[C@@H](CC(C)C)C(=O)N[C@@H](CC(C)C)C(=O)N[C@H](C=O)CCCNC(=N)N [Leupeptin],% CONTROL,[5]; inhibitor 100 μM,0%
same,"inhibition of β-secretase endoprotease activity in chromaffin vesicle lysate, in words",[5],completely inhibited
same,Peak I (%),[2]; inhibitor 100 μM,0%
same,"inhibition of Peak I activity, in words",[2],maximally inhibited; also recorded: completely inhibited
same,Peak II (%),[3]; inhibitor 100 μM,0%
same,"inhibition of Peak II activity, in words",[3],maximally inhibited; also recorded: completely inhibited
"O=S(=O)(F)Cc1ccccc1 [PMSF, phenylmethylsulfonyl fluoride]",% CONTROL,[5]; inhibitor 100 μM,58%
same,"inhibition of β-secretase endoprotease activity in chromaffin vesicle lysate, in words",[5],significantly inhibited
same,"inhibition of Peak I activity, in words",[2],did not significantly inhibit; also recorded: only slightly inhibited
same,"inhibition of Peak II activity, in words",[3],did not significantly inhibit; also recorded: only slightly inhibited
CC(C)CC(=O)N[C@H](C(=O)N[C@H](C(=O)N[C@@H](CC(C)C)[C@@H](O)CC(=O)N[C@@H](C)C(=O)N[C@@H](CC(C)C)[C@@H](O)CC(=O)O)C(C)C)C(C)C [Pepstatin A] (Isovaleryl-VV[Sta]A[Sta]-OH),% CONTROL,[5]; inhibitor 10 μM,78%
same,"inhibition of β-secretase endoprotease activity in chromaffin vesicle lysate, in words",[5],slightly inhibited
same,Peak I (%),[2]; inhibitor 100 μM,85%
same,"inhibition of Peak I activity, in words",[2],did not significantly inhibit; also recorded: slightly inhibited
same,Peak II (%),[3]; inhibitor 100 μM,132%
same,"inhibition of Peak II activity, in words",[3],did not significantly inhibit; also recorded: increased the activity
O=C(O)c1cc[c]([Hg][OH])cc1 [pHMB],% CONTROL,[5]; inhibitor 1 mM,35%
same,"inhibition of β-secretase endoprotease activity in chromaffin vesicle lysate, in words",[5],inhibited
same,"inhibition of β-secretase endoprotease activity in chromaffin vesicle lysate, in words",[5]; listed as PHMB,greatly inhibited
same,Peak I (%),[2]; inhibitor 1 mM,67%
same,"inhibition of Peak I activity, in words",[2],slightly inhibited; also recorded: inhibited
same,Peak II (%),[3]; inhibitor 1 mM,68%
same,"inhibition of Peak II activity, in words",[3],slightly inhibited; also recorded: inhibited
